The record followed here is ChEMBL document CHEMBL5131399, “Broadening antifungal spectrum and improving metabolic stablity based on a scaffold strategy: Design, synthesis, and evaluation of novel 4-phenyl-4,5-dihydrooxazole derivatives as potent fungistatic and fungicidal reagents” (Eur J Med Chem, 2022).

Converted amounts (≈) assume the structure as drawn.

The first test concerns Candida albicans. In words: Antifungal activity against Candida albicans ATCC SC5314 assessed as fungal growth inhibition by NCCLS protocol based method. In kind it is functional.
Details: not given
For the molecule `Clc1ccc(C2(Cn3ccnc3)COC(c3ccc(-c4ccccc4)s3)=N2)cc1` (stereo not given), the minimal inhibitory concentration (MIC) stood at 0.25 µg/mL (≈ 0.595 µM).

In the case of `Cc1cccc(C2(Cn3ccnc3)COC(c3ccc(-c4ccccc4)s3)=N2)c1` (stereo not given), the minimum inhibitory concentration (MIC) is 0.125 µg/mL (≈ 0.313 µM).

The next test deals with Pichia kudriavzevii. In words: Antifungal activity against Candida krusei GIM2.1 assessed as fungal growth inhibition by NCCLS protocol based method.
Details: not given
Format: functional.
As to `Clc1ccc(C2(Cn3ccnc3)COC(c3ccc(-c4ccccc4)s3)=N2)cc1` (stereo not given), the MIC came to 16 µg/mL (≈ 38.1 µM).

As to `Cc1cccc(C2(Cn3ccnc3)COC(c3ccc(-c4ccccc4)s3)=N2)c1` (stereo not given), the MIC was > 64 µg/mL.

In the next test the test system is Aspergillus fumigatus. Nature of the test: Antifungal activity against Aspergillus fumigatus CGMCC3.7795 assessed as fungal growth inhibition by NCCLS protocol based method. In kind it is functional.
Details: not given
Consider `Clc1ccc(C2(Cn3ccnc3)COC(c3ccc(-c4ccccc4)s3)=N2)cc1` (stereo not given), for which the minimum inhibitory concentration (MIC) was found to be 8 µg/mL (≈ 19.1 µM).

Consider `Cc1cccc(C2(Cn3ccnc3)COC(c3ccc(-c4ccccc4)s3)=N2)c1` (stereo not given), for which the minimal inhibitory concentration (MIC) was > 64 µg/mL.

In the next test the test system is Candida albicans. In words: Antifungal activity against FLC-resistant Candida albicans 100 assessed as fungal growth inhibition by NCCLS protocol based method. In kind it is functional.
Details: not given
Take `Clc1ccc(C2(Cn3ccnc3)COC(c3ccc(-c4ccccc4)s3)=N2)cc1` (stereo not given): the MIC amounted to 4 µg/mL (≈ 9.53 µM).

As for `Cc1cccc(C2(Cn3ccnc3)COC(c3ccc(-c4ccccc4)s3)=N2)c1` (stereo not given), the minimum inhibitory concentration (MIC) was found to be 0.5 µg/mL (≈ 1.25 µM).

The test system of the next test is Candida tropicalis. Nature of the test: Antifungal activity against Candida tropicalis CGMCC 2.3739 assessed as fungal growth inhibition by NCCLS protocol based method. Format: functional.
Details: not given
For `Clc1ccc(C2(Cn3ccnc3)COC(c3ccc(-c4ccccc4)s3)=N2)cc1` (stereo not given), the MIC was 0.125 µg/mL (≈ 0.298 µM).

Consider `Cc1cccc(C2(Cn3ccnc3)COC(c3ccc(-c4ccccc4)s3)=N2)c1` (stereo not given), for which the minimum inhibitory concentration (MIC) is 4 µg/mL (≈ 10 µM).

Another test deals with Candida albicans. Nature of the test: Antifungal activity against FLC-resistant Candida albicans 632 assessed as fungal growth inhibition by NCCLS protocol based method. Format: functional.
Details: not given
For the molecule `Clc1ccc(C2(Cn3ccnc3)COC(c3ccc(-c4ccccc4)s3)=N2)cc1` (stereo not given), the MIC was 1 µg/mL (≈ 2.38 µM).

Take `Cc1cccc(C2(Cn3ccnc3)COC(c3ccc(-c4ccccc4)s3)=N2)c1` (stereo not given): the MIC worked out at 4 µg/mL (≈ 10 µM).

Another test has as its system Candida albicans. In words: Antifungal activity against FLC-resistant Candida albicans 311 assessed as fungal growth inhibition by NCCLS protocol based method. In kind it is functional.
Details: not given
For `Clc1ccc(C2(Cn3ccnc3)COC(c3ccc(-c4ccccc4)s3)=N2)cc1` (stereo not given), the MIC was found to be 4 µg/mL (≈ 9.53 µM).

Turning to `Cc1cccc(C2(Cn3ccnc3)COC(c3ccc(-c4ccccc4)s3)=N2)c1` (stereo not given), the MIC stood at 4 µg/mL (≈ 10 µM).

The next test relates to Candida albicans. In words: Antifungal activity against FLC-resistant Candida albicans 904 assessed as fungal growth inhibition by NCCLS protocol based method. Format: functional.
Details: not given
For `Clc1ccc(C2(Cn3ccnc3)COC(c3ccc(-c4ccccc4)s3)=N2)cc1` (stereo not given), the MIC came to 2 µg/mL (≈ 4.76 µM).

For the molecule `Cc1cccc(C2(Cn3ccnc3)COC(c3ccc(-c4ccccc4)s3)=N2)c1` (stereo not given), the minimal inhibitory concentration (MIC) came to 4 µg/mL (≈ 10 µM).

A further test relates to Candida albicans. Nature of the test: Antifungal activity against FLC-resistant Candida albicans 901 assessed as fungal growth inhibition by NCCLS protocol based method. In kind it is functional.
Details: not given
As to `Clc1ccc(C2(Cn3ccnc3)COC(c3ccc(-c4ccccc4)s3)=N2)cc1` (stereo not given), the minimum inhibitory concentration (MIC) stood at 0.5 µg/mL (≈ 1.19 µM).

Consider `Cc1cccc(C2(Cn3ccnc3)COC(c3ccc(-c4ccccc4)s3)=N2)c1` (stereo not given), for which the minimal inhibitory concentration (MIC) worked out at 8 µg/mL (≈ 20 µM).

In the next test the test system is Candida albicans. Nature of the test: Antifungal activity against Candida albicans CPCC400616 assessed as fungal growth inhibition by NCCLS protocol based method. In kind it is functional.
Details: not given
As for `Clc1ccc(C2(Cn3ccnc3)COC(c3ccc(-c4ccccc4)s3)=N2)cc1` (stereo not given), the MIC came out at 0.25 µg/mL (≈ 0.595 µM).

`Cc1cccc(C2(Cn3ccnc3)COC(c3ccc(-c4ccccc4)s3)=N2)c1` (stereo not given): the MIC is 2 µg/mL (≈ 5.01 µM).

The next test concerns Candida parapsilosis. Nature of the test: Antifungal activity against Candida parapsilosis GIM2.190 assessed as fungal growth inhibition by NCCLS protocol based method. In kind it is functional. As to conditions: Lodderomyces parapsilosis.
For `Clc1ccc(C2(Cn3ccnc3)COC(c3ccc(-c4ccccc4)s3)=N2)cc1` (stereo not given), the MIC is 2 µg/mL (≈ 4.76 µM).

For the molecule `Cc1cccc(C2(Cn3ccnc3)COC(c3ccc(-c4ccccc4)s3)=N2)c1` (stereo not given), the MIC was > 64 µg/mL.

The subject of another test is Candida albicans. In words: Antifungal activity against FLC-resistant Candida albicans CaR assessed as fungal growth inhibition by NCCLS protocol based method.
Details: not given
In kind it is functional.
As to `Clc1ccc(C2(Cn3ccnc3)COC(c3ccc(-c4ccccc4)s3)=N2)cc1` (stereo not given), the MIC stood at 1 µg/mL (≈ 2.38 µM).

With `Cc1cccc(C2(Cn3ccnc3)COC(c3ccc(-c4ccccc4)s3)=N2)c1` (stereo not given), the MIC came to 8 µg/mL (≈ 20 µM).

The next test concerns Cryptococcus neoformans. Nature of the test: Antifungal activity against Cryptococcus neoformans CGMCC 2.3161 assessed as fungal growth inhibition by NCCLS protocol based method. Format: functional.
Details: not given
As for `Clc1ccc(C2(Cn3ccnc3)COC(c3ccc(-c4ccccc4)s3)=N2)cc1` (stereo not given), the MIC was 0.5 µg/mL (≈ 1.19 µM).

For `Cc1cccc(C2(Cn3ccnc3)COC(c3ccc(-c4ccccc4)s3)=N2)c1` (stereo not given), the minimum inhibitory concentration (MIC) is 0.5 µg/mL (≈ 1.25 µM).

For another test, the system named is Candida albicans. Nature of the test: Antifungal activity against FLC-resistant Candida albicans 103 assessed as fungal growth inhibition by NCCLS protocol based method. Format: functional.
Details: not given
For `Clc1ccc(C2(Cn3ccnc3)COC(c3ccc(-c4ccccc4)s3)=N2)cc1` (stereo not given), the MIC worked out at 4 µg/mL (≈ 9.53 µM).

As for `Cc1cccc(C2(Cn3ccnc3)COC(c3ccc(-c4ccccc4)s3)=N2)c1` (stereo not given), the MIC was 4 µg/mL (≈ 10 µM).

A further test deals with Nakaseomyces glabratus. In words: Antifungal activity against Candida glabrata clinical isolate assessed as fungal growth inhibition by NCCLS protocol based method. In kind it is functional.
Details: not given
In the case of `Clc1ccc(C2(Cn3ccnc3)COC(c3ccc(-c4ccccc4)s3)=N2)cc1` (stereo not given), the MIC is 16 µg/mL (≈ 38.1 µM).

On to `Cc1cccc(C2(Cn3ccnc3)COC(c3ccc(-c4ccccc4)s3)=N2)c1` (stereo not given), for which the minimum inhibitory concentration (MIC) was > 64 µg/mL.
